Assay results from patent US6335368B1, “Use of alverine for reducing wrinkles” (Societe L'Oreal S.A., priority 1999, dated 2002).
Read-outs that look alike come from different tables or passages of the source.

Test system: phrenic nerve/diaphragm isolated from rat (striated muscle)
Test: Nerve/muscle junction (motor plate) model: isolated rat phrenic nerve/diaphragm preparation
Format: cell-based
Conditions: for inhibition at 100 µM: Rattus norvegicus
Experimental: Activity of Alverine in a model of nerve/muscle junction (motor plate) measured in a preparation of phrenic nerve/diaphragm isolated from rat (striated muscle) (Pollard B. J. et al, Br. J. Anaesth., 1988, 61, 419-424). The phrenic nerve and the diaphragm are carefully isolated and placed in a 50 ml tank filled with survival fluid (Krebs-Henseleit fluid) maintained at a temperature of 37° C. and oxygenated using an oxygen/CO2 mixture (95/5). The variations in tension of the diaphragm are recorded with an initial preload of several grams. After a relaxation period of 30 min., the diaphragm is stimulated indirectly via the phrenic nerve. On each preparation, the effect of the test products was evaluated in a first stage as regards the contractions induced by indirect stimulation via stimulation of the phrenic nerve (0.1 to 0.5 volts, 0.3 ms, 0.1 Hz) at increasing and cumulative concentrations from 10^−9 M to 10^−4 M. In the event of an effect at the end of the test, the diaphragm is stimulated directly in order to determine whether or not the inhibition of the neurotransmission results from a pre-junctional blockage or a post-junctional blockage.

CCN(CCCc1ccccc1)CCCc1ccccc1 [Alverine, di(phenylpropyl)ethylamine]
inhibition of contractions induced by the indirect stimulations (10^−4 M): completely inhibits
inhibition at 100 µM (10^−4 M Alverine, contractions induced by indirect stimulation via phrenic nerve, 1st study, read-out: % of inhibition, indirect stimulation): 100%
inhibition at 100 µM (10^−4 M Alverine, contractions induced by indirect stimulation via phrenic nerve, 2nd study, read-out: % of inhibition, indirect stimulation): 100%
inhibition at 100 µM (10^−4 M Alverine, direct stimulation of the diaphragm, 1st study, read-out: % of inhibition, direct stimulation): 61.4%
inhibition at 100 µM (10^−4 M Alverine, direct stimulation of the diaphragm, 2nd study, read-out: % of inhibition, direct stimulation): 42.2%
inhibition at 100 µM (10^−4 M, read-out: inhibition of contractions induced by the direct stimulations): ~50%
